Drawing on US20090298902A1, “PESTICIDE COMPOSITIONS FOR COMBATING ARTHROPOD PESTS, SNAILS AND NEMATODES” (priority 2006, published 2009), this text covers mortality for 1 compound.

The assay has as its system workers of the eastern subterranean termite, Reticulitermes flavipes. Briefly: Test example 4: soil incorporation bioassay with compound P5a formulations. In kind it is in vivo. Particulars: 24 h, 1 DAT, read-out: Mean cumulative % mortality at days after treatment (DAT). As for the experimental part:
Bioassays were conducted in 60×15 mm Petri dishes with a 1% agar layer for moisture and 15 termite workers per dish. Granular formulations were incorporated into the Princeton sandy loam soil by hand shaking and mixing with use of a commercial jar roller. After incorporation, water was added to field capacity, and the soil was rolled again. The soil was allowed to sit at field capacity overnight. The soil was then air dried for 24 hours prior to introduction into the test dishes. Conventional suspension concentrate of fipronil was used as a standard, and untreated soil used as a control. Test dishes were maintained at approximately 26° C. and 85% RH. Dishes were observed daily for 13 days for mortality. The concentration of active ingredient was 0.0004875% (w/w) in trench.
Test example 4 was performed similar to test example 1, using formulations containing compound P5a. Comparison of a superabsorber formulation of compound P5 to a DC formulation of compound P5 for bioactivity against workers of the eastern subterranean termite, Reticulitermes flavipes, via soil (Princeton sandy loam) incorporation;

Each structure is given as a SMILES string.

In general, mortality refers to the share of the test organisms that died. As to `CCN/C(=N\Nc1c(Cl)cc(C(F)(F)F)cc1Cl)C1(C)CC1(Cl)Cl` (centres unmarked) [Compound P5a], the mortality at 10 ppm (Rate 10 ppm) worked out at 100%. Moreover, the mortality at 100 ppm (Rate 100 ppm) was found to be 100%.
